Columns and labels:
HCMV polymerase = target: T1, HCMV polymerase (Human cytomegalovirus, UniProt P08546); test: HCMV polymerase assay (scintillation proximity assay, modified version); format: biochemical; details: modified HCMV polymerase SPA; for IC50: compounds diluted in 100% DMSO, 4.5 mM DTT
T1 construct: made in house; host or cells: recombinant baculovirus-infected SF-9 cells
Description: The HCMV polymerase assay is performed using a scintillation proximity assay (SPA) as described in several references, such as N. D. Cook, et al., Pharmaceutical Manufacturing International, pages 49-53 (1992); K. Takeuchi, Laboratory Practice, September issue (1992); U.S. Pat. No. 4,568,649 (1986); which are incorporated by reference herein. Reactions are performed in 96-well plates. The assay is conducted in 100 μl volume with 5.4 mM HEPES (pH 7.5), 11.7 mM KCl, 4.5 mM MgCl2, 0.36 mg/ml BSA, and 90 nM ^3H-dTTP. Assays are run with and without CHAPS, (3-[(3-cholamidopropyl)-dimethylammonio]-1-propane-sulfonate) at a final concentration of 2 mM. HCMV polymerase is diluted in enzyme dilution buffer containing 50% glycerol, 250 mM NaCl, 10 mM HEPES (pH 7.5), 100 μg/ml BSA, and 0.01% sodium azide. The HCMV polymerase, which is expressed in recombinant baculovirus-infected SF-9 cells and purified according to literature procedures, is added at 10% (or 10 μl) of the final reaction volume, i.e., 100 μl. Compounds are diluted in 50% DMSO and 10 μl are added to each well. Control wells contain an equivalent concentration of DMSO. Unless noted otherwise, reactions are initiated via the addition of 6 nM biotinylated poly(dA)-oligo(dT) template/primer to reaction mixtures containing the enzyme, substrate, and compounds of interest. Plates are incubated in a 25° C. or 37° C. H2O bath and terminated via the addition of 40 μl/reaction of 0.5 M EDTA (pH 8) per well. Reactions are terminated within the time-frame during which substrate incorporation is linear and varied depending upon the enzyme and conditions used, i.e., 30 min. for HCMV polymerase. Ten μl of streptavidin-SPA beads (20 mg/ml in PBS/10% glycerol) are added following termination of the reaction. Plates are incubated 10 min. at 37° C., then equilibrated to room temperature, and counted on a Packard Topcount. Linear regressions are performed and IC50's are calculated using computer software.
A modified version of the above HCMV polymerase assay is performed as described above, but with the following changes: Compounds are diluted in 100% DMSO until final dilution into assay buffer. In the previous assay, compounds are diluted in 50% DMSO. 4.5 mM dithiotherotol (DTT) is added to the polymerase buffer. […] All results are listed as Polymerase IC50 (μM) values. In Table 1, the term “nd” refers to activity data not determined.

T1 sequence (P08546 whole entry): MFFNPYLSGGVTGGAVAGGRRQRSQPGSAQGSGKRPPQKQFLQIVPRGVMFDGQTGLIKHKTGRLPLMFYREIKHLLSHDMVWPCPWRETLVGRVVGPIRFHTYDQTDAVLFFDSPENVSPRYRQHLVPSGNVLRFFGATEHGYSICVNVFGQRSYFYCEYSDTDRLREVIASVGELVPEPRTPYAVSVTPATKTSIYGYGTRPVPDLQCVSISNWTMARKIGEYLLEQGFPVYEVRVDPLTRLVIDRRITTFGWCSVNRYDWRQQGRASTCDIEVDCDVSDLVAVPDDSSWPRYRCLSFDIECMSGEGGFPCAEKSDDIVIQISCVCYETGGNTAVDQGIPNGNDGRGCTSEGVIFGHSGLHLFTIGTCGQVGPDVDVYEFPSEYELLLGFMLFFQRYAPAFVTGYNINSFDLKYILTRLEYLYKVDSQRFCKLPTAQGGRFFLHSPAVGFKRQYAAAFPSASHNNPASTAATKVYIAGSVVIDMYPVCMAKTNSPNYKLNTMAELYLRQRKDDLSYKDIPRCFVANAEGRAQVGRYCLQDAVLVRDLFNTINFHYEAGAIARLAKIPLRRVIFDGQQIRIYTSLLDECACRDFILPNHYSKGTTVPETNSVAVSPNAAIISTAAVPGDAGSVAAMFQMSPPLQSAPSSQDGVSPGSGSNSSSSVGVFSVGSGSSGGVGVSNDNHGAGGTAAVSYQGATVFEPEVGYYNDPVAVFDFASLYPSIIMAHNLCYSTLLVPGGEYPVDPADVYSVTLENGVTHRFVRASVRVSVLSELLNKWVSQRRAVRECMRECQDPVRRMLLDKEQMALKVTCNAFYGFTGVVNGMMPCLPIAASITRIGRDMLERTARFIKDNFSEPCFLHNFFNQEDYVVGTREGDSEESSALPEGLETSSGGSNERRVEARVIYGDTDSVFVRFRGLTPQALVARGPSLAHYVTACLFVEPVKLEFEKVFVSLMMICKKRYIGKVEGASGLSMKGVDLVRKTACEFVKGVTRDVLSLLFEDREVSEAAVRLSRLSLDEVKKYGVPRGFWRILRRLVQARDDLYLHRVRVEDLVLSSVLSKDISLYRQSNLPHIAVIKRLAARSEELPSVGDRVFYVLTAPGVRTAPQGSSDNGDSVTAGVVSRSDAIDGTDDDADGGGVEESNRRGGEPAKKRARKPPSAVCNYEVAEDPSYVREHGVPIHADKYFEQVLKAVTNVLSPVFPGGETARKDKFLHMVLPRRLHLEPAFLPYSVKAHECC

Row | Structure (SMILES) | IC50 (HCMV polymerase) | melting point | HCMV polymerase inhibition (HCMV polymerase; at 20 μm)
1 | Cc1ccc2c(O)c(C(=O)NCc3ccc(Cl)cc3)cnc2n1 [Example 1, N-(4-chlorobenzyl)-4-hydroxy-7-methyl[1,8]naphthyridine-3-carboxamide] | 26 µM | 280 to 285 °C (dec.) | 
2 | COC(=O)c1cc2c(O)c(C(=O)NCc3ccc(Cl)cc3)cnc2nc1C [Example 5, Methyl 6-{[(4-chlorobenzyl)amino]carbonyl}-5-hydroxy-2-methyl[1,8]naphthyridine-3-carboxylate] | 8.5 µM | 265 to 267 °C | 
3 | Cc1nc2ncc(C(=O)NCc3ccc(Cl)cc3)c(O)c2cc1Br [Example 2, 6-bromo-N-(4-chlorobenzyl)-4-hydroxy-7-methyl[1,8]naphthyridine-3-carboxamide] |  | 269 to 270 °C | 39% inhibition
4 | Cc1nc2ncc(C(=O)NCc3ccc(Cl)cc3)c(O)c2cc1I [Example 4, N-(4-chlorobenzyl)-4-hydroxy-6-iodo-7-methyl[1,8]naphthyridine-3-carboxamide] | 13.7 µM | 276 to 277 °C | 
5 | Cc1nc2ncc(C(=O)NCc3ccc(Cl)cc3)c(O)c2cc1C#CCO [Example 3, N-(4-chlorobenzyl)-4-hydroxy-6-(3-hydroxy-1-propynyl)-7-methyl[1,8]naphthyridine-3-carboxamide] | 2.1 µM | 279 to 281 °C (dec.) | 
